Assay results taken from article doi:10.1101/2025.03.14.643404, “A Bivalent Molecular Glue Linking Lysine Acetyltransferases to Oncogene-induced Cell Death” (bioRxiv, 2025).

Molecular target: T1, p300 (Homo sapiens, UniProt P41182+Q09472)
T1 construct: endogenous in cells; host or cells: SUDHL5
Test: p300 immunoprecipitation-mass spectrometry in SUDHL5
Type: cell-based
Conditions: SUDHL5, 1 nM, 2 h, vs DMSO
Experimental: 50 million FLAG-BCL6 knock-in SUDHL5 cells were treated compound or DMSO (0.1%) at indicated doses for 2 hours. Cells were lysed in NE10 buffer (20 mM HEPES (pH 7.5), 10 mM KCl, 1 mM MgCl2, 0.1% Triton X-100 (v/v), protease inhibitors (Roche), 15 mM ß-mercaptoethanol), dounced 15 times and pelleted 5 min at 500 g. Nuclei were washed in NE10 buffer and then digested with 250 units benzonase (Millipore) for 30 min rotating at 25°C. Nuclei were resuspended in NE150 buffer (NE10 supplemented with 150mM NaCl) and incubated for 20 min. Lysates were pelleted at 16,000 g for 20 min at 4°C and supernatants were immunoprecipitated by incubating with 2.5 μg FLAG M2 antibody (F1804, Millipore-Sigma) or 2.5 μg p300 (A300–358A, Bethyl Laboratories) antibody with Dynabeads Protein G (Thermo Fisher) overnight at 4°C. The IP fraction was recovered by magnetic separation followed by three washes with NE10 buffer containing 150mM–300mM NaCl but without Triton-X. For mass spectrometry analysis, the IP was then eluted from the beads with Ammonium Hydroxide, pH 11–12; 3% v/v. […]
The reconstituted desalted peptides were then analyzed using a nanoElute 2 UHPLC (Bruker Daltonics, Bremen, Germany) coupled to a timsTOF HT (Bruker Daltonics, Bremen, Germany) via a CaptiveSpray nano-electrospray source. […]

T1 sequence (Q09472 2-2414 limits assumed, other chains not shown): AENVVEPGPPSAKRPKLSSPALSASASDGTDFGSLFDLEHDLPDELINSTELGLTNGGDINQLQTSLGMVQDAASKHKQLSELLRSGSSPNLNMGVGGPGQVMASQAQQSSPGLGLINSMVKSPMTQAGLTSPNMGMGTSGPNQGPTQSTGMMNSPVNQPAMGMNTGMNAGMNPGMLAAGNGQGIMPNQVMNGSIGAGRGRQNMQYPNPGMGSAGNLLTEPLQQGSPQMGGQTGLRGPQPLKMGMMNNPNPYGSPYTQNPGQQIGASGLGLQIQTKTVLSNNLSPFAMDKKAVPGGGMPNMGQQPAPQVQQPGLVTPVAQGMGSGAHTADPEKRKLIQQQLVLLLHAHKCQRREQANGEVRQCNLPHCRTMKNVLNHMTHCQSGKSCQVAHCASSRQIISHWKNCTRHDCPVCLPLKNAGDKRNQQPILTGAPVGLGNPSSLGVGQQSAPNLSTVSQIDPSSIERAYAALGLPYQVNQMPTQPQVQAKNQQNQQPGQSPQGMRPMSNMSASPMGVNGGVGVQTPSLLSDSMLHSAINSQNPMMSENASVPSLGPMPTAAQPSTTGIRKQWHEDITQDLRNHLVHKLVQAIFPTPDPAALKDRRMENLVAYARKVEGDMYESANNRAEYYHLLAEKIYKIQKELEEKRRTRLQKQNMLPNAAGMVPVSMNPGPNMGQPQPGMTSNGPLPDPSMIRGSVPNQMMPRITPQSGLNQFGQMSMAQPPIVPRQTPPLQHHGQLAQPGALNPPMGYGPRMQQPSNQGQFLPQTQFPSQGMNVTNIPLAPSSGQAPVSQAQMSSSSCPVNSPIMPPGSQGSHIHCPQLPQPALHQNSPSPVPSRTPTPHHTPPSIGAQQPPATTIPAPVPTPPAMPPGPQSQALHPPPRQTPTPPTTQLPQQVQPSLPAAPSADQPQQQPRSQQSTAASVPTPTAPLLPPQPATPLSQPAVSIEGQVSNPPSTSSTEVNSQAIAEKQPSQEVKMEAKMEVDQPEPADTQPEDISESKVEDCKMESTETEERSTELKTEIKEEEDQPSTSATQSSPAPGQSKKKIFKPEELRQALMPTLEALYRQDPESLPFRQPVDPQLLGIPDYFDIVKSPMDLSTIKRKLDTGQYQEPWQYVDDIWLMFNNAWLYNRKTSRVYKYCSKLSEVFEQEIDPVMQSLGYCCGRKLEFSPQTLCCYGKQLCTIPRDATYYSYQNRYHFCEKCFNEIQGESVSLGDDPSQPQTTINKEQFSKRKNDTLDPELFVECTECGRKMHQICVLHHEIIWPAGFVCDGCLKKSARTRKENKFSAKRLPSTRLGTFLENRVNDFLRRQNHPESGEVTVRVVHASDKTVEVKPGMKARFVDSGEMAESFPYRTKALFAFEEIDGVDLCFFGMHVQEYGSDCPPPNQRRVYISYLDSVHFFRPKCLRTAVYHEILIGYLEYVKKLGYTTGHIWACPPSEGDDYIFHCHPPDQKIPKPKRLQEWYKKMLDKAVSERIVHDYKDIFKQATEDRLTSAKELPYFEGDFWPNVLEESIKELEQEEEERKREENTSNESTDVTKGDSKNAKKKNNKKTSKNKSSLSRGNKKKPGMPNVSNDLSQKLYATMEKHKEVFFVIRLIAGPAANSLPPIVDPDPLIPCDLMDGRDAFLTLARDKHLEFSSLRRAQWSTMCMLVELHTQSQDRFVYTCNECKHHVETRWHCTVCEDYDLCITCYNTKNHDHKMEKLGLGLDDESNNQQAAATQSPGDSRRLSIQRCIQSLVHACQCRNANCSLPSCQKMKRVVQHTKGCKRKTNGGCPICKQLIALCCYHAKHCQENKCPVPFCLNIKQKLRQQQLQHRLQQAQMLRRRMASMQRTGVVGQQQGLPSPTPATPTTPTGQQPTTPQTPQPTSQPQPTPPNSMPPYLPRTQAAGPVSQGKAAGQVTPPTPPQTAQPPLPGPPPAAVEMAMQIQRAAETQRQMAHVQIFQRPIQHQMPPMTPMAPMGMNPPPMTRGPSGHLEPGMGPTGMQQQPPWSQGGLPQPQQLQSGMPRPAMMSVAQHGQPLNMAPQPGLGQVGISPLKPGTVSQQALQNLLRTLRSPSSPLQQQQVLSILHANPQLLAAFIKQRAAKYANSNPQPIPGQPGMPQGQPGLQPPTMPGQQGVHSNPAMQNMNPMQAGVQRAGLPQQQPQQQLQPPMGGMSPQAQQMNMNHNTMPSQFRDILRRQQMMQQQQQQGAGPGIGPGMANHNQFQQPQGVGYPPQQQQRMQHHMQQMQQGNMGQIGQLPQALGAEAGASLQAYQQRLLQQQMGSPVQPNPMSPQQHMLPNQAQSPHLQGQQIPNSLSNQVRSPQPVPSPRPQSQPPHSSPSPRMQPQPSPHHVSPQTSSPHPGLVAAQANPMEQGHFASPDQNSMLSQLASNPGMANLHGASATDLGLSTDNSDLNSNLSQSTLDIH

enrichment of BCL6 in p300 IP, log2(fold change): 4.0
Compound: CNC(=O)COc1cc2cc(Nc3nc(N4CCC(C(=O)N5CCN(CCC(=O)N6CCC(n7nc(N8CCCc9cc(-c%10cnn(C)c%10)c(C(F)F)cc98)c8c7CCN(C(=O)NC)C8)CC6)CC5)CC4)ncc3Cl)cc(OC)c2n(C)c1=O [TCIP3]
